# Biological target: Trace amine-associated receptor 1 (Mus musculus, UniProt Q923Y8)
# Assay: Radioligand Binding Assay : HEK-293 cells stably expressing mouse TAAR1 were maintained at 37° C. and 5% CO2 in DMEM high glucose medium, containing fetal calf serum (10%, heat inactivated for 30 min at 56° C.), penicillin/streptomycin (1%), and 375 μg/ml geneticin (Gibco). Cells were released from culture flasks using trypsin/EDTA, harvested, washed twice with ice-cold PBS (without Ca2+ and Mg2+), pelleted at 1,000 rpm for 5 min at 4° C., frozen and stored at −80° C. Frozen pellets were suspended in 20 ml HEPES-NaOH (20 mM, pH 7.4) containing 10 mM EDTA and homogenized with a Polytron (PT 6000, Kinematica) at 14′000 rpm for 20 s. The homogenate was centrifuged at 48,000×g for 30 min at 4° C. Subsequently, the supernatant was removed and discarded, and the pellet resuspended in 20 ml HEPES-NaOH (20 mM, pH 7.4) containing 0.1 mM EDTA using the Polytron (20 s at 14′000 rpm). This procedure was repeated and the final pellet resuspended in HEPES-NaOH containing 0.1 mM EDTA and homogenized using the Polytron. Typically, aliquots of 2 ml membrane portions were stored at −80° C. With each new membrane batch the dissociation constant (Kd) was determined via a saturation curve.
# Trace amine-associated receptor 1, sequence (Q923Y8 whole entry): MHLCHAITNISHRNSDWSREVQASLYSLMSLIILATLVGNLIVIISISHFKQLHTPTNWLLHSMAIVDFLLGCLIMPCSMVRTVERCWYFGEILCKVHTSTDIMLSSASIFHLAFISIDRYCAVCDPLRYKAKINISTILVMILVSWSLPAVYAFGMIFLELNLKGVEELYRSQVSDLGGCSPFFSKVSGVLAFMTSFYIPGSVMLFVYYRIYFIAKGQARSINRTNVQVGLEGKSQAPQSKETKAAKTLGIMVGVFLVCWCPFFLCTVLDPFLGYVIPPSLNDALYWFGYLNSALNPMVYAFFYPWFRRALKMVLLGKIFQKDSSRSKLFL
structure (smiles),measurement,value
CCCc1n[nH]c(C(=O)Nc2ccc(C3CNCCO3)nc2)c1Cl (racemic),Ki,5.6 nM

# Source: ChEMBL document CHEMBL5726672, “Morpholin-pyridine derivatives” (2017)
